Columns and labels:
Assay type in all cases: cell-based
Human TRPML1 = Human TRPML1 (Homo sapiens, UniProt Q9GZU1, L15A/L16A/L577A/L578A); test: Fluorescent TRPML1 assay (Fluo4-AM, HEK-293 Trex cells expressing hTRPML1); details: fluorescent calcium assay, doxycycline-induced hTRPML1
Experimental: Example 27. Fluorescent TRPML Assays
(§1) HEK-293 Trex cells were stably transfected with a construct consisting of the human coding sequence for TRPML1 cloned into the tet-inducible plasmid pCDNA5 T/O. Mutations were introduced into the TRPML1 sequence to facilitate expression on the cell surface (Silvia Vergarajauregui, Rosa Puertollano Traffic. 2006 March; 7(3): 337-353). Briefly, the cells are cultured in 150 mm round tissue culture dishes containing 20 mL of media. The day before the assay the cells are rinsed with DPBS-Ca-Mg and then treated briefly with Trypsin-EDTA. The Trypsin-EDTA is diluted with growth media, and cells are counted. 38×10^6 cells are re-plated into 150 mm round tissue culture dishes in media containing 0.5 μg/mL doxycycline to induce expression of hTRPML1.
(§2) The day of the experiment cells are lifted from the plates as above and collected by centrifugation. The cells are then suspended in dye loading buffer consisting of Ringer's solution supplemented with 0.1% Pluronic Acid and 1 micromolar Fluo4-AM dye. Cells are loaded for ~60 minutes in the dark with occasional mixing. The cells are collected by centrifugation, the loading media aspirated, and the cells resuspended in 25 mL Ringer's solution and incubated ~60 minutes in the dark. The cells are again collected by centrifugation, rinsed in Ringer's Solution and resuspended to 0.2×10^6 cells/mL in modified Ringer's solution containing 10 mM calcium.
(§3) Compounds are dissolved to a concentration of 10 millimolar with DMSO. Compound plates are created by dispensing compounds into 384 well black wall clear bottom plates (Greiner 781091). Positive and negative controls are included on each plate. Typically, different amounts of each compound are tested ranging from 100 nanoMoles (20 micromolar final concentration) decreasing in half-log steps to 31 picoMoles (6 nanomolar final concentration). Each concentration is typically tested in triplicate.
(§4) 50 microliters of dye-loaded cells are dispensed into each well of the compound assay plate created above. The fluorescence in each well is then determined with an excitation wavelength of 480 nm and an emission wavelength of 540 nm using either a Molecular Devices SpectraMax multimode plate reader or a Hamamatsu FDSS/uCell plate imager.
(§5) The resulting fluorescence for each well is exported as an ascii file and loaded into our LIMS for analysis. The percent activity of each compound at each concentration is determined by comparison to the positive and negative control wells included in each plate.
(§6) EC50 values were calculated using a non-linear regression of Prism. In the table, “A” indicates an EC50 of less than 100 nM, “B” indicates an EC50 range from 100 nM to 500 nM: “C” indicates an EC50 range from 500 nM to 2 μM; and “D” indicates an EC50 greater than 2 μM.

Human TRPML2 = molecular target: T1, Human TRPML2 (Homo sapiens, UniProt Q8IZK6); test: Fluorescent TRPML2 assay (as for TRPML1); details: fluorescent calcium assay as for TRPML1, TRPML2 subtype
T1 construct: expressed in transfected cells
T1 sequence (Q8IZK6 1-566): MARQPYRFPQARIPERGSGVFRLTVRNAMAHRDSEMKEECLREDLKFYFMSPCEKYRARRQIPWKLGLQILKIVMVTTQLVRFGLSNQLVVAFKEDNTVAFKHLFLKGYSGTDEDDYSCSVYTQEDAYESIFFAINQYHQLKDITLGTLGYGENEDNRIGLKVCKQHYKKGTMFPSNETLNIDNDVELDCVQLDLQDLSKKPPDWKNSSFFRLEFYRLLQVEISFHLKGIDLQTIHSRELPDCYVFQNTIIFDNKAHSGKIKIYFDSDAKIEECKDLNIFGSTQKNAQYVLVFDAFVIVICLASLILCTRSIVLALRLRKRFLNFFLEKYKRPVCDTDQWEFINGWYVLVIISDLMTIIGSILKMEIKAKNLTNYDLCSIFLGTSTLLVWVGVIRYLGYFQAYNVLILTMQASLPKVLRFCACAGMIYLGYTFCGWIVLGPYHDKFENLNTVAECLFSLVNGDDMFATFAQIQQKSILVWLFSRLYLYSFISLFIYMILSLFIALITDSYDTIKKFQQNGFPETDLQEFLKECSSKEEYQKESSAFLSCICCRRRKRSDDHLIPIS
Experimental: as §1, §2, §3, §4, §5
(§7) Assays for TRPML2 and TRPML3 were performed as above for TRPML1, by substituting the appropriate TRPML2 or TRPML3 subtype for the TRPML1.
as §6

Human TRPML3 = molecular target: T2, Human TRPML3 (Homo sapiens, UniProt Q8TDD5); test: Fluorescent TRPML3 assay (as for TRPML1); details: fluorescent calcium assay as for TRPML1, TRPML3 subtype
T2 construct: expressed in transfected cells
T2 sequence (Q8TDD5 1-553): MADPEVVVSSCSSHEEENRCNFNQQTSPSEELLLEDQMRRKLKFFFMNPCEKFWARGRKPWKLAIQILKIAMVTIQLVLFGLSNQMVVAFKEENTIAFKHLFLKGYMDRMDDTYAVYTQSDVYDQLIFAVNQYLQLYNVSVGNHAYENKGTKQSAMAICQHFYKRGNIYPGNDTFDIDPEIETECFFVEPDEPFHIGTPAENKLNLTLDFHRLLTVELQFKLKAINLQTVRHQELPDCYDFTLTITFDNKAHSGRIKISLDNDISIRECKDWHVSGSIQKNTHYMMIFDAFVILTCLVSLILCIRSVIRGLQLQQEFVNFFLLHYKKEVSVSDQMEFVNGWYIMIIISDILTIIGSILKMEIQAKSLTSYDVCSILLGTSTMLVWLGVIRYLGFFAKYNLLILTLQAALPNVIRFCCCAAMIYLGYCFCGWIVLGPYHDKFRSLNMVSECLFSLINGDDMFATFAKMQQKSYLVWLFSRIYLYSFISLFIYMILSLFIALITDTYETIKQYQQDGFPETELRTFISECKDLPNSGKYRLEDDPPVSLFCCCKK
Experimental: as §1, §2, §3, §4, §5, §7, §6

Chain of Human TRPML1 (Q9GZU1 whole entry L15A/L16A/L577A/L578A): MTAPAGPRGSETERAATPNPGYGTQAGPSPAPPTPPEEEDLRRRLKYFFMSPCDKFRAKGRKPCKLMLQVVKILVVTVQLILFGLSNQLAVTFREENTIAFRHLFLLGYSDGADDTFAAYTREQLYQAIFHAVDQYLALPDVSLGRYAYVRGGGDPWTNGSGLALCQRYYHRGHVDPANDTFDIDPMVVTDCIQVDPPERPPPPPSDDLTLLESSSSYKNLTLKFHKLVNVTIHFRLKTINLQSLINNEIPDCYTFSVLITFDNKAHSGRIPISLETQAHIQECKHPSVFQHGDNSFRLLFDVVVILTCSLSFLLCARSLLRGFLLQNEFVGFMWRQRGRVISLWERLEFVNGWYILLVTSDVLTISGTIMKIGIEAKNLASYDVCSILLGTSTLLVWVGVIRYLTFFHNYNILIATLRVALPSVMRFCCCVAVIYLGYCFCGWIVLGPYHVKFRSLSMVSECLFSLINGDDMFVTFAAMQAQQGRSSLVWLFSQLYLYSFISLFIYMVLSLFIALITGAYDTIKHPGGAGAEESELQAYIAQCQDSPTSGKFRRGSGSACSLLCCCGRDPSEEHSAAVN

Structure (SMILES) | EC50 (Human TRPML1) | EC50 (Human TRPML2) | EC50 (Human TRPML3)
C[C@@H]1CN(c2ncnc3c2c(-c2ccncc2F)cn3-c2cc(C#N)ccn2)[C@@H](C)CN1C(=O)C(C)(C)O [Compound 146, 2-(5-(3-fluoropyridin-4-yl)-4-((2S,5R)-4-(2-hydroxy-2-methylpropanoyl)-2,5-dimethylpiperazin-1-yl)-7H-pyrrolo[2,3-d]pyrimidin-7-yl)isonicotinonitrile] | 100 to 500 nM | > 2000 nM | 500 to 2000 nM
C[C@@H]1CN(c2ncnc3c2c(-c2ccncc2)cn3-c2cc(C#N)ccn2)[C@@H](C)CN1C(=O)C1(O)CCCC1 [Compound 150, 2-(4-((2S,5R)-4-(1-hydroxycyclopentane-1-carbonyl)-2,5-dimethylpiperazin-1-yl)-5-(pyridin-4-yl)-7H-pyrrolo[2,3-d]pyrimidin-7-yl)isonicotinonitrile] | < 100 nM | 500 to 2000 nM | 100 to 500 nM
C[C@@H]1CN(c2ncnc3c2c(-c2ccccc2F)cn3-c2cc(C#N)ccn2)[C@@H](C)CN1C(=O)CC(C)(C)O [Compound 158, 2-(5-(2-fluorophenyl)-4-((2S,5R)-4-(3-hydroxy-3-methylbutanoyl)-2,5-dimethylpiperazin-1-yl)-7H-pyrrolo[2,3-d]pyrimidin-7-yl)isonicotinonitrile] | 100 to 500 nM | > 2000 nM | < 100 nM
CC[C@H]1CN(C(=O)C(C)(C)O)[C@H](C)CN1c1ncnc2c1c(-c1ccccc1)cn2-c1cc(C#N)ccn1 [Compound 129, 2-(4-((2S,5R)-2-ethyl-4-(2-hydroxy-2-methylpropanoyl)-5-methylpiperazin-1-yl)-5-phenyl-7H-pyrrolo[2,3-d]pyrimidin-7-yl)isonicotinonitrile] | < 100 nM | > 2000 nM | 100 to 500 nM
C[C@@H]1CN(c2ncnc3c2c(-c2ccccc2F)cn3-c2cc(C#N)ccn2)[C@@H](C)CN1C(=O)C1(O)CCCCC1 [Compound 122, 2-(5-(2-fluorophenyl)-4-((2S,5R)-4-(1-hydroxycyclohexane-1-carbonyl)-2,5-dimethylpiperazin-1-yl)-7H-pyrrolo[2,3-d]pyrimidin-7-yl)isonicotinonitrile] | < 100 nM | 500 to 2000 nM | < 100 nM
COC1(C(=O)N2C[C@H](C)N(c3ncnc4c3c(-c3ccccc3F)cn4-c3cc(C#N)ccn3)C[C@H]2C)COC1 [Compound 166, 2-(5-(2-fluorophenyl)-4-((2S,5R)-4-(3-methoxyoxetane-3-carbonyl)-2,5-dimethylpiperazin-1-yl)-7H-pyrrolo[2,3-d]pyrimidin-7-yl)isonicotinonitrile] | < 100 nM | 500 to 2000 nM | < 100 nM
CCOC(C)(C)C(=O)N1C[C@H](C)N(c2ncnc3c2c(-c2ccccc2F)cn3-c2cc(C#N)ccn2)C[C@H]1C [Compound 164, 2-(4-((2S,5R)-4-(2-ethoxy-2-methylpropanoyl)-2,5-dimethylpiperazin-1-yl)-5-(2-fluorophenyl)-7H-pyrrolo[2,3-d]pyrimidin-7-yl)isonicotinonitrile] | < 100 nM | < 100 nM | < 100 nM
Cc1cnccc1-c1cn(-c2cc(C#N)ccn2)c2ncnc(N3C[C@@H](C)N(C(=O)C(C)(C)O)C[C@@H]3C)c12 [Compound 147, 2-(4-((2S,5R)-4-(2-hydroxy-2-methylpropanoyl)-2,5-dimethylpiperazin-1-yl)-5-(3-methylpyridin-4-yl)-7H-pyrrolo[2,3-d]pyrimidin-7-yl)isonicotinonitrile] | 500 to 2000 nM | > 2000 nM | 500 to 2000 nM
C[C@@H]1CN(c2ncnc3c2c(-c2ccccc2)cn3-c2cc(C#N)ccn2)[C@@H](C)CN1C(=O)CC(O)(C(F)(F)F)C(F)(F)F [Compound 161, 2-(4-((2S,5R)-2,5-dimethyl-4-(4,4,4-trifluoro-3-hydroxy-3-(trifluoromethyl)butanoyl)piperazin-1-yl)-5-phenyl-7H-pyrrolo[2,3-d]pyrimidin-7-yl)isonicotinonitrile] | 100 to 500 nM | 500 to 2000 nM | < 100 nM
C[C@@H]1CN(c2ncnc3c2c(-c2ccccc2F)cn3-c2cc(C#N)ccn2)[C@@H](C)CN1C(=O)C(C)(O)CO (stereo partly drawn) [Compound 167, 2-(4-((2S,5R)-4-(2,3-dihydroxy-2-methylpropanoyl)-2,5-dimethylpiperazin-1-yl)-5-(2-fluorophenyl)-7H-pyrrolo[2,3-d]pyrimidin-7-yl)isonicotinonitrile] | 100 to 500 nM | – | 500 to 2000 nM
C[C@H]1CN(C(=O)C2(O)CCC2)CCN1c1ncnc2c1c(-c1ccccc1)cn2-c1cc(C#N)ccn1 [Compound 118, (S)-2-(4-(4-(1-hydroxycyclobutane-1-carbonyl)-2-methylpiperazin-1-yl)-5-phenyl-7H-pyrrolo[2,3-d]pyrimidin-7-yl)isonicotinonitrile] | 100 to 500 nM | – | 100 to 500 nM
CC[C@H]1CN(C(=O)C(C)(C)O)CCN1c1ncnc2c1c(-c1ccccc1)cn2-c1cc(C#N)ccn1 [Compound 111, (S)-2-(4-(2-ethyl-4-(2-hydroxy-2-methylpropanoyl)piperazin-1-yl)-5-phenyl-7H-pyrrolo[2,3-d]pyrimidin-7-yl)isonicotinonitrile] | 100 to 500 nM | – | 500 to 2000 nM
C[C@@H]1CN(c2ncnc3c2c(-c2ccccc2F)cn3-c2cc(C#N)ccn2)[C@@H](C)CN1C(=O)C1(O)CCC1 [Compound 114, 2-(5-(2-fluorophenyl)-4-((2S,5R)-4-(1-hydroxycyclobutane-1-carbonyl)-2,5-dimethylpiperazin-1-yl)-7H-pyrrolo[2,3-d]pyrimidin-7-yl)isonicotinonitrile] | < 100 nM | – | 100 to 500 nM
C[C@@H]1CN(c2ncnc3c2c(-c2ccccc2)cn3-c2cc(F)ccn2)[C@@H](C)CN1C(=O)C(C)(C)O [Compound 106, 1-((2R,5S)-4-(7-(4-fluoropyridin-2-yl)-5-phenyl-7H-pyrrolo[2,3-d]pyrimidin-4-yl)-2,5-dimethylpiperazin-1-yl)-2-hydroxy-2-methylpropan-1-one] | 100 to 500 nM | – | > 2000 nM
C[C@@H]1CN(c2ncnc3c2c(-c2ccccc2F)cn3-c2cc(OC(F)(F)F)ccn2)[C@@H](C)CN1C(=O)C(C)(C)O [Compound 103, 1-((2R,5S)-4-(5-(2-fluorophenyl)-7-(4-(trifluoromethoxy)pyridin-2-yl)-7H-pyrrolo[2,3-d]pyrimidin-4-yl)-2,5-dimethylpiperazin-1-yl)-2-hydroxy-2-methylpropan-1-one] | 100 to 500 nM | – | 500 to 2000 nM

— patent US20260285866A1, “MODULATORS OF TRPML, THEIR COMPOSITIONS AND METHODS OF USE” (Caraway Therapeutics, Inc., priority 2024, published 2026)
